pIC50: −log10 of the molar value.
What was measured:
IDH1 R132H enzyme = IDH1 R132H enzyme (Homo sapiens (Human), UniProt O75874, R132H); test: Mutant IDH1 R132H biochemical assay; conditions: NADPH consumption, luminescent readout, 250 μM α-KG, 1 μM NADPH, 32° C., 30 minutes, test range 0.002-10 μM; further: 1.5 nM enzyme
Experimental: mIDH1 catalyzes the NADPH-dependent reduction of alpha-ketoglutarate (α-KG) to (2R)-2-hydroxyglutarate (2-HG). NADPH consumption was measured by luminescent readout.
The biochemical reactions were performed at 32° C. in 384-well plates using a reaction volume of 41 μl and the following assay buffer conditions: 50 mM Tris pH 7.5, 100 mM NaCl, 20 mM MgCl2, 0.05% BSA, 0.01% Brij, 1 μM NADPH, and 250 μM α-KG. […] Test compounds were used in a concentration range between 0.002 and 10 μM. The final DMSO concentration was 2.4%.
The reaction was incubated for 30 minutes, then 40 μl of detection mix (0.75 μg/ml Luciferase, 0.02 U/ml Oxidoreductase, 4 μg/ml FMN, 2 μl/ml Decanal/Ethanol, 50 mM Tris pH 7.5, 0.5% Glycerin, 0.01% Tween-20, 0.05% BSA) was added. Luminescence was measured on a luminescent reader (10 seconds measuring time, 1 second integration period, 30% sensitivity). The decrease in luminescence is proportional to mIDH1 activity. IC50 values are determined by interpolation from plots of relative luminescence versus inhibitor concentration.

[1] = system: LN229 R132H cells overexpressing mutated isocitrate dehydrogenase (mIDH); test: Mutant IDH1 cellular assay (2-HG levels in medium); type: cell-based; conditions: 2-HG in medium of LN229 R132H cells, 24 hours incubation, fluorescence readout
Experimental: Mutant IDH1 Cellular Assay
Levels of (2R)-2-hydroxyglutarate (2HG) were measured in medium of a cell line with overexpression of mutated isocitrate dehydrogenase (mIDH) protein. mIDH catalyzes the NADPH-dependent reduction of alpha-ketoglutarate to 2-HG. Cells (LN229 R132H, Mohrenz et al., Apoptosis (2013) 18:1416-1425) were grown in DMEM containing 10% FCS. They were harvested by trypsin and seeded into 96-well plates. Cells were incubated overnight at 37° C. in 5% CO2. The next day test compounds were added to each cell well. The final concentration of DMSO was 0.1% and DMSO controls were included. The plates were then placed in an incubator for 24 hours.
2-HG was measured according to Balss et al. (Acta Neuropathol (2012) 124: 883-891). Briefly, HClO4 was added to each well and the plates were centrifuged. Aliquots are removed and incubated with hydroxyglutarate dehydrogenase (HGDH), diaphorase, NAD+, and resazurin. The conversion of resazurin to resorufin was detected by fluorescence spectroscopy at Ex 540 nm Em 600 nm. The increase in fluorescence is proportional to 2-HG production. IC50 values are determined by interpolation from plots of relative fluorescence vs inhibitor concentration.

Chain of IDH1 R132H enzyme (O75874 whole entry R132H): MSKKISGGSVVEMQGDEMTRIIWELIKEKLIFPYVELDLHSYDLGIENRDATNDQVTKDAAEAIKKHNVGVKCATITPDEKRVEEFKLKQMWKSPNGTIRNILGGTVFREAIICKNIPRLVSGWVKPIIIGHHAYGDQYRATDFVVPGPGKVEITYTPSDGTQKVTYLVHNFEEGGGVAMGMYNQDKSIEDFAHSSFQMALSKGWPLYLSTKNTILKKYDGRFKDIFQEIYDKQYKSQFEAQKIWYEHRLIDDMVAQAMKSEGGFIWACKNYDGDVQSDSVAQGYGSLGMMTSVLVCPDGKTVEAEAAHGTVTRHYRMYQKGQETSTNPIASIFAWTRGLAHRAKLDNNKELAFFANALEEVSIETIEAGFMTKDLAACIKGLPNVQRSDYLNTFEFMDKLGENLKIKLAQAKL

Structure (SMILES) | pIC50 (IDH1 R132H enzyme) | other results
COC(=O)CCNC(=O)c1ccc2nc(Nc3ccc(OC(F)(F)F)cc3)n([C@H]3C[C@@H](C)CC(C)(C)C3)c2c1 (racemic) [Example 2-14, (±) methyl N-[(2-{[4-(trifluoromethoxy)phenyl]amino}-1-[(cis)-3,3,5-trimethylcyclohexyl]-1H-benzimidazol-6-yl)carbonyl]-β-alaninate] | ≤ 5.00 | –
COC(=O)c1ccc2nc(Nc3ccc(OC(F)(F)F)cc3)n([C@H]3C[C@@H](C)CC(C)(C)C3)c2c1 (single isomer, unassigned; enantiomer b) [Example 2-1-2, methyl 2-{[4-(trifluoromethoxy)phenyl]amino}-1-[(cis)-3,3,5-trimethylcyclohexyl]-1H-benzimidazole-6-carboxylate, enantiomer B] | – | pIC50 ([1]; Homo sapiens, LN-229, 24 h): 5.24
C[C@@H]1C[C@H](n2c(Nc3ccc(OC(F)(F)F)cc3)nc3ccc(C(=O)NCCC(=O)O)cc32)CC(C)(C)C1 (racemic) [Example 2-15, (±) N-[(2-{[4-(trifluoromethoxy)phenyl]amino}-1-[(cis)-3,3,5-trimethylcyclohexyl]-1H-benzimidazol-6-yl)carbonyl]-β-alanine] | ≤ 5.00 | –
C[C@@H]1C[C@H](n2c(Nc3ccc(OC(F)(F)F)cc3)nc3ccc(C(=O)NS(C)(=O)=O)cc32)CC(C)(C)C1 (racemic) [Example 2-19, (±) N-(methylsulfonyl)-2-{[4-(trifluoromethoxy)phenyl]amino}-1-[(cis)-3,3,5-trimethylcyclohexyl]-1H-benzimidazole-6-carboxamide] | ≤ 5.00 | –
CNC(=O)c1ccc2nc(Nc3ccc(OC(F)(F)F)cc3)n([C@H]3C[C@@H](C)CC(C)(C)C3)c2c1 (racemic) [Example 2-8, (±) N-methyl-2-{[4-(trifluoromethoxy)phenyl]amino}-1-[(cis)-3,3,5-trimethylcyclohexyl]-1H-benzimidazole-6-carboxamide] | 6.37 | –
C[C@@H]1C[C@H](n2c(Nc3ccc(OC(F)(F)F)cc3)nc3ccc(C(=O)NC4CC4)cc32)CC(C)(C)C1 (single isomer, unassigned; enantiomer b) [Example 2-23-2, N-cyclopropyl-2-{[4-(trifluoromethoxy)phenyl]amino}-1-[(cis)-3,3,5-trimethylcyclohexyl]-1H-benzimidazole-6-carboxamide, enantiomer B] | ≤ 5.00 | –
C[C@@H]1C[C@H](n2c(Nc3ccc(OC(F)(F)F)cc3)nc3ccc(C(=O)N(C)CC(=O)O)cc32)CC(C)(C)C1 (racemic) [Example 2-11, (±) N-methyl-N-[(2-{[4-(trifluoromethoxy)phenyl]amino}-1-[(cis)-3,3,5-trimethylcyclohexyl]-1H-benzimidazol-6-yl)carbonyl]glycine] | 5.12 | –
C[C@@H]1C[C@H](n2c(Nc3ccc(OC(F)(F)F)cc3)nc3ccc(C(=O)NC4CC4)cc32)CC(C)(C)C1 (single isomer, unassigned; enantiomer a) [Example 2-23-1, N-cyclopropyl-2-{[4-(trifluoromethoxy)phenyl]amino}-1-[(cis)-3,3,5-trimethylcyclohexyl]-1H-benzimidazole-6-carboxamide, enantiomer A] | ≤ 5.00 | –
COC(=O)c1ccc2nc(Nc3ccc(OC(F)(F)F)cc3)n([C@H]3C[C@H](C)CC(C)(C)C3)c2c1 (racemic) [Example 2-2, (±) methyl 2-{[4-(trifluoromethoxy)phenyl]amino}-1-[(trans)-3,3,5-trimethylcyclohexyl]-1H-benzimidazole-6-carboxylate] | – | pIC50 ([1]; Homo sapiens, LN-229, 24 h): 5.00
CCOC(=O)CCN(C)C(=O)c1ccc2nc(Nc3ccc(OC(F)(F)F)cc3)n([C@H]3C[C@@H](C)CC(C)(C)C3)c2c1 (racemic) [Example 2-24, (±) ethyl N-methyl-N-[(2-{[4-(trifluoromethoxy)phenyl]amino}-1-[(cis)-3,3,5-trimethylcyclohexyl]-1H-benzimidazol-6-yl)carbonyl]-β-alaninate] | ≤ 5.00 | –
C[C@@H]1C[C@H](n2c(Nc3ccc(OC(F)(F)F)cc3)nc3ccc(C(=O)NC4CC4)cc32)CC(C)(C)C1 (racemic) [Example 2-23, (±) N-cyclopropyl-2-{[4-(trifluoromethoxy)phenyl]amino}-1-[(cis)-3,3,5-trimethylcyclohexyl]-1H-benzimidazole-6-carboxamide] | ≤ 5.00 | –
C[C@@H]1C[C@H](n2c(Nc3ccc(OC(F)(F)F)cc3)nc3ccc(C(=O)NCCO)cc32)CC(C)(C)C1 (racemic) [Example 2-13, (±) N-(2-hydroxyethyl)-2-{[4-(trifluoromethoxy)phenyl]amino}-1-[(cis)-3,3,5-trimethylcyclohexyl]-1H-benzimidazole-6-carboxamide] | 5.66 | –
C[C@@H]1C[C@H](n2c(Nc3ccc(OC(F)(F)F)cc3)nc3ccc(C(=O)NC4CCCC4)cc32)CC(C)(C)C1 (racemic) [Example 2-5, (±) N-cyclopentyl-2-{[4-(trifluoromethoxy)phenyl]amino}-1-[(cis)-3,3,5-trimethylcyclohexyl]-1H-benzimidazole-6-carboxamide] | ≤ 5.00 | –
CNC(=O)c1ccc2nc(Nc3ccc(OC(F)(F)F)cc3)n([C@H]3C[C@@H](C)CC(C)(C)C3)c2c1 (single isomer, unassigned; enantiomer a) [Example 2-8-1, N-methyl-2-{[4-(trifluoromethoxy)phenyl]amino}-1-[(cis)-3,3,5-trimethylcyclohexyl]-1H-benzimidazole-6-carboxamide, enantiomer A] | 6.04 | –
C[C@@H]1C[C@H](n2c(Nc3ccc(OC(F)(F)F)cc3)nc3ccc(C(=O)N4CCOCC4)cc32)CC(C)(C)C1 (single isomer, unassigned; enantiomer a) [Example 2-16-1, morpholin-4-yl(2-{[4-(trifluoromethoxy)phenyl]amino}-1-[(cis)-3,3,5-trimethylcyclohexyl]-1H-benzimidazol-6-yl)methanone, enantiomer A] | – | pIC50 [1]: 6.30
C[C@@H]1C[C@H](n2c(Nc3ccc(OC(F)(F)F)cc3)nc3ccc(C(=O)Nc4ccc(F)cc4)cc32)CC(C)(C)C1 (racemic) [Example 2-22, (±) N-(4-fluorophenyl)-2-{[4-(trifluoromethoxy)phenyl]amino}-1-[(cis)-3,3,5-trimethylcyclohexyl]-1H-benzimidazole-6-carboxamide] | ≤ 5.00 | –
CNC(=O)c1ccc2nc(Nc3ccc(OC(F)(F)F)cc3)n([C@H]3C[C@@H](C)CC(C)(C)C3)c2c1 (single isomer, unassigned; enantiomer b) [Example 2-8-2, N-methyl-2-{[4-(trifluoromethoxy)phenyl]amino}-1-[(cis)-3,3,5-trimethylcyclohexyl]-1H-benzimidazole-6-carboxamide, enantiomer B] | 5.92 | –
C[C@H]1C[C@H](n2c(Nc3ccc(OC(F)(F)F)cc3)nc3ccc(C(=O)N(C)C)cc32)CC(C)(C)C1 (racemic) [Example 2-25, (±) N,N-dimethyl-2-{[4-(trifluoromethoxy)phenyl]amino}-1-[(trans)-3,3,5-trimethylcyclohexyl]-1H-benzimidazole-6-carboxamide] | 6.33 | –
C[C@@H]1C[C@H](n2c(Nc3ccc(OC(F)(F)F)cc3)nc3ccc(C(=O)NCc4ccc(F)cc4)cc32)CC(C)(C)C1 (racemic) [Example 2-21, (±) N-(4-fluorobenzyl)-2-{[4-(trifluoromethoxy)phenyl]amino}-1-[(cis)-3,3,5-trimethylcyclohexyl]-1H-benzimidazole-6-carboxamide] | ≤ 5.00 | –
COC(=O)CNC(=O)c1ccc2nc(Nc3ccc(OC(F)(F)F)cc3)n([C@H]3C[C@@H](C)CC(C)(C)C3)c2c1 (racemic) [Example 2-10, (±) methyl N-[(2-{[4-(trifluoromethoxy)phenyl]amino}-1-[(cis)-3,3,5-trimethylcyclohexyl]-1H-benzimidazol-6-yl)carbonyl]glycinate] | 5.18 | –
C[C@@H]1C[C@H](n2c(Nc3ccc(OC(F)(F)F)cc3)nc3ccc(C(=O)N4CCOCC4)cc32)CC(C)(C)C1 (single isomer, unassigned; enantiomer b) [Example 2-16-2, morpholin-4-yl(2-{[4-(trifluoromethoxy)phenyl]amino}-1-[(cis)-3,3,5-trimeethylcyclohexyl]-1H-benzimidazol-6-yl)methanone, enantiomer B] | – | pIC50 ([1]; Homo sapiens, LN-229, 24 h): 6.40

Source: US10138226B2, “Benzimidazol-2-amines as MIDH1 inhibitors” (Bayer Pharma Aktiengesellschaft, priority 2014, dated 2018)
